Assay [1] concerns the target T1, human Nav1.3 channels (Homo sapiens, UniProt Q9NY46).
T1 construct: expressed in transfected cells; host or cells: HEK293
Briefly: FRET assay, human Nav1.3 (EFS on FDSS). The format is cell-based. The following applies: HEK293 cells expressing human Nav1.3, read-out: IC50 against Nav1.3. The procedure, abridged: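 HEK293 cells expressing the channel, loaded with 10 microM CC2-DMPE then 15 microM DiSBAC2(3) plus 0.555 mM VABSC-1 in pH 7.4 HEPES buffer at room temperature. Membrane potential changes evoked by electrical field stimulation after compound addition; IC50 from 440 nm-normalized FRET ratios.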

Assay [2] concerns the target T2, human Nav1.7 channels (Homo sapiens, UniProt Q15858).
T2 construct: expressed in transfected cells; host or cells: CHO
The assay is described as follows: FRET assay, human Nav1.7 (EFS on FDSS). The format is cell-based. The conditions noted are these: CHO cells expressing human Nav1.7, read-out: IC50 against Nav1.7. The procedure, abridged:
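IC50 was derived from normalized 440 nm fluorescence ratios of the EFS-evoked membrane-potential response read on FDSS. Recombinant CHO cells were sequentially dye-loaded with coumarin/oxonol FRET pair at room temperature in pH 7.4 buffer before compound addition.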

Bounds are passed on as bounds.

The IC50 is the concentration that inhibits the measured activity by half.

T1 sequence (Q9NY46 whole entry): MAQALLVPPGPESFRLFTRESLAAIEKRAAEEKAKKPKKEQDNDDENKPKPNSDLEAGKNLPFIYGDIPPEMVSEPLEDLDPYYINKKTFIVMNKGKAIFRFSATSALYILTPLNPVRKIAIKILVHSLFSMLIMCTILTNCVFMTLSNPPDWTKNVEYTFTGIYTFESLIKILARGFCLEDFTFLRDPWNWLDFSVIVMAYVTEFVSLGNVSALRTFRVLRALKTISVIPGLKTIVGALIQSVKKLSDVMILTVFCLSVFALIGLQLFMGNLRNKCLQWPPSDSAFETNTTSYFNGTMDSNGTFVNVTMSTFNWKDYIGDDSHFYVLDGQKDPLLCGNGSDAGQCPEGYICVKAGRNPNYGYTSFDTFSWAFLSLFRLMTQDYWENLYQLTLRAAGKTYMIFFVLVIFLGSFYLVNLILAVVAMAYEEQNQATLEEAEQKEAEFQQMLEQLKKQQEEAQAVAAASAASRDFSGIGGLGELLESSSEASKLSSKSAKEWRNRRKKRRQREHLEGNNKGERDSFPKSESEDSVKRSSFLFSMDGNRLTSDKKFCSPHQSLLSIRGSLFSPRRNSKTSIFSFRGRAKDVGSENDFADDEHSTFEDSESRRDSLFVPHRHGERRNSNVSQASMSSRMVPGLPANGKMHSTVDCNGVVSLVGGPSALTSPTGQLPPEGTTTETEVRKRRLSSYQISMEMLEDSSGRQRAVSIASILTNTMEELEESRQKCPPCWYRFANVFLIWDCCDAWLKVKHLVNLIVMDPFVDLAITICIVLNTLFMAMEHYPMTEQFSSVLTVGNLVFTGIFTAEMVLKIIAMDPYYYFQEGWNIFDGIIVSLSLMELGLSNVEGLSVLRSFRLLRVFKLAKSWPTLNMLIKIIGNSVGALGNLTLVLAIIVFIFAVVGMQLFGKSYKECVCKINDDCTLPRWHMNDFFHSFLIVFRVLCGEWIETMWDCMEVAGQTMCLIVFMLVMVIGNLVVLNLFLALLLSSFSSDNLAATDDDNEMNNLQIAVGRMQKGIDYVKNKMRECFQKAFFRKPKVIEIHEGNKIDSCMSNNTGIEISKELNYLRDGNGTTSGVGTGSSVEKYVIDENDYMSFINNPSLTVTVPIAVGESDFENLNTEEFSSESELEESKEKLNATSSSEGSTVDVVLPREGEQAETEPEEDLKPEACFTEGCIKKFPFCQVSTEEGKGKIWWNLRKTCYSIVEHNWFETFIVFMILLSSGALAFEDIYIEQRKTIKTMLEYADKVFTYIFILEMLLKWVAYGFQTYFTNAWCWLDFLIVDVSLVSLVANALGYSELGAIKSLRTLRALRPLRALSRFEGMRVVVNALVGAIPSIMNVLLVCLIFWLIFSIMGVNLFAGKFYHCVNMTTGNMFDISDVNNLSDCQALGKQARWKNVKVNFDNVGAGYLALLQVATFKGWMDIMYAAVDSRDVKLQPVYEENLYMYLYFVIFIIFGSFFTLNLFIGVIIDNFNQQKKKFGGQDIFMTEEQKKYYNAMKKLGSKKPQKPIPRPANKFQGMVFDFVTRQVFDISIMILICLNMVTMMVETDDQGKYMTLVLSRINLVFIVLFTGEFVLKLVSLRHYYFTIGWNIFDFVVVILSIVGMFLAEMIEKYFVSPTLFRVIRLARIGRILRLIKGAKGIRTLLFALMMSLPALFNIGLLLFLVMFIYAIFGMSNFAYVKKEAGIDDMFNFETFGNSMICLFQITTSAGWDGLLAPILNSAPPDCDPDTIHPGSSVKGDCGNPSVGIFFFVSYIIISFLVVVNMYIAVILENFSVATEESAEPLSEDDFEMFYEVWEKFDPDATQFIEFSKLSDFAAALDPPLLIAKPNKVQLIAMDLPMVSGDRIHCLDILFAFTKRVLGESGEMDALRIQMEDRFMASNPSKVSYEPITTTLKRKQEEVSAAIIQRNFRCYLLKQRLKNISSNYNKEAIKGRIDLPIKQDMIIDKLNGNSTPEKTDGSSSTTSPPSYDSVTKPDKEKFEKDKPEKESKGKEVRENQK
T2 sequence (Q15858 whole entry): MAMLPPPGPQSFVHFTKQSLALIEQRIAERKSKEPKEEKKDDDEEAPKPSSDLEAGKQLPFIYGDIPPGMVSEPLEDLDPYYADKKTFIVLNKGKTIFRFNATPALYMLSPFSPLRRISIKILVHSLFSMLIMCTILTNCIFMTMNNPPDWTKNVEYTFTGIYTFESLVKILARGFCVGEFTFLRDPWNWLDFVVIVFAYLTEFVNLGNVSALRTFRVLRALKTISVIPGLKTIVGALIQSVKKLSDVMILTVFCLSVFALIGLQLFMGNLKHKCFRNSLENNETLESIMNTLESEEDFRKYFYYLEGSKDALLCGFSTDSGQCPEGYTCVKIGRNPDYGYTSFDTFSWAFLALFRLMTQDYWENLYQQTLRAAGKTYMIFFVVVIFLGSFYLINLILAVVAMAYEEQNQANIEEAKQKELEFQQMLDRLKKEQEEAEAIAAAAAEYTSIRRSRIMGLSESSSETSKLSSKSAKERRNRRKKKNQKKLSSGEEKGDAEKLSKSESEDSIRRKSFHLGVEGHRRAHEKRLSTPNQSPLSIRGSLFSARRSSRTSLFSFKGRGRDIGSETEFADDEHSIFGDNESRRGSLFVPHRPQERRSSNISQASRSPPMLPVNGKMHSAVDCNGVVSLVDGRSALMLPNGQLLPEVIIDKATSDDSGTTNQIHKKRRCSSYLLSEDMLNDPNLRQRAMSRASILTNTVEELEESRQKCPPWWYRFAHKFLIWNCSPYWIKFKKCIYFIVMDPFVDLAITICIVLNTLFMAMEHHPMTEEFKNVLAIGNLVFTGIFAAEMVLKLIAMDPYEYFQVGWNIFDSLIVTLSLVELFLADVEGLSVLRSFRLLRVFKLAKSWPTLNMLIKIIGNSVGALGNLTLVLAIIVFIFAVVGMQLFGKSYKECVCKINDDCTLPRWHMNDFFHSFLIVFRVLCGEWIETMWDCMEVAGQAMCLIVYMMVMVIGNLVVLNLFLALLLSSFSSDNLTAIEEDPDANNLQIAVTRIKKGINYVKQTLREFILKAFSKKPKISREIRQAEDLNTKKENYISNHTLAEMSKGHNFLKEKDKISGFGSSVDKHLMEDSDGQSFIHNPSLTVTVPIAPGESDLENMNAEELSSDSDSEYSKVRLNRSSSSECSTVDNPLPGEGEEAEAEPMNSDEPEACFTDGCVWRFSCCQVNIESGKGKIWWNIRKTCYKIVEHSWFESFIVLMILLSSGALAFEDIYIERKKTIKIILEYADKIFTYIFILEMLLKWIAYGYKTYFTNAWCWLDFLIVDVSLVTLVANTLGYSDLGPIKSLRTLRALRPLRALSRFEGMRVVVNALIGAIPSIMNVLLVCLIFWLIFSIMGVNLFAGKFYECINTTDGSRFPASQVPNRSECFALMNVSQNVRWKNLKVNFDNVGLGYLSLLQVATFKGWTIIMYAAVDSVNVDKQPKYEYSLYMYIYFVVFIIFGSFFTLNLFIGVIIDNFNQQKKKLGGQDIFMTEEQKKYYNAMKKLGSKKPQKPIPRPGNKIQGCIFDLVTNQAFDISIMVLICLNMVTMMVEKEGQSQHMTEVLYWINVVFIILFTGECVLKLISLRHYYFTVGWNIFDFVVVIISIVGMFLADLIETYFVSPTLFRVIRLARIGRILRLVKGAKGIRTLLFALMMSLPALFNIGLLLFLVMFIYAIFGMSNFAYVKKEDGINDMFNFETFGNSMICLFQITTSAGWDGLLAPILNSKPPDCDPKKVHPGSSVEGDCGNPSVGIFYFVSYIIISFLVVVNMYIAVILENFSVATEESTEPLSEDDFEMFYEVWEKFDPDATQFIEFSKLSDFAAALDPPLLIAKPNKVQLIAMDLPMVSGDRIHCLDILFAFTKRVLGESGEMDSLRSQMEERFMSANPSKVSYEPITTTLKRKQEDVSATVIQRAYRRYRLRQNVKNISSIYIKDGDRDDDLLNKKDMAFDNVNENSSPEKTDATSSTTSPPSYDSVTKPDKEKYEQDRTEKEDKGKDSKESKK

With `CCC(=O)Nc1nc(C)cc(C(=O)NCc2cnc(OCC(F)(F)F)c(C)c2)n1` [Example 364, 6-methyl-N-((5-methyl-6-(2,2,2-trifluoroethoxy)pyridin-3-yl)methyl)-2-propionamidopyrimidine-4-carboxamide], the IC50 in assay [1] and in assay [2] was less than 1 µM each time.

Consider `CCC(=O)Nc1cc(C(=O)NCc2ccc(OC(F)(F)F)c(C)c2)ccn1` [Example 805, N-(3-methyl-4-(trifluoromethoxy)benzyl)-2-propionamidoisonicotinamide], for which the IC50 in assay [1] and in assay [2] was less than 1 µM in each case.

On to `CCC(=O)Nc1cc(C(=O)NCc2cnc(OCC(F)(F)C(F)F)c(C)c2)ccn1` [Example 940, N-((5-methyl-6-(2,2,3,3-tetrafluoropropoxy)pyridin-3-yl)methyl)-2-propionamidoisonicotinamide], for which the half-inhibitory concentration (IC50) in assay [1] and in assay [2] was less than 1 µM each time.

As to `CC(C)C(=O)Nc1cc(C(=O)NCc2ccc(OCC(F)(F)F)nc2)ccn1` [Example 169, 2-isobutyramido-N-((6-(2,2,2-trifluoroethoxy)pyridin-3-yl)methyl)isonicotinamide], the IC50 in assay [1] and in assay [2] was less than 1 µM in each case.

Take `CC(=O)Nc1cc(C(=O)NCc2ccc(OCC(F)(F)F)c(C)c2)cc(C)n1` [Example 792, 2-acetamido-6-methyl-N-(3-methyl-4-(2,2,2-trifluoroethoxy)benzyl)isonicotinamide]: the IC50 in assay [1] and in assay [2] was less than 1 µM throughout.

Regarding `CCC(=O)Nc1cc(C(=O)NCc2ccc(OCC(F)(F)F)nc2OC)ccn1` [Example 149, N-((2-methoxy-6-(2,2,2-trifluoroethoxy)pyridin-3-yl)methyl)-2-propionamidoisonicotinamide], the IC50 in assay [1] and in assay [2] was less than 1 µM throughout.

In the case of `Cc1cc(C(=O)NCc2cccc(OC(F)(F)F)c2)cc(NC(=O)C2CC2)n1` [Example 836, 2-(cyclopropanecarboxamido)-6-methyl-N-(3-(trifluoromethoxy)benzyl)isonicotinamide], the IC50 in assay [1] and in assay [2] was less than 1 µM in each case.

For the molecule `CCC(=O)Nc1cc(C(=O)NC(C)c2cnc(OCC(F)(F)F)c(Cl)c2)cc(C)n1` (single isomer, unassigned) [Example 130, N-(1-(5-chloro-6-(2,2,2-trifluoroethoxy)pyridin-3-yl)ethyl)-2-methyl-6-propionamidoisonicotinamide], the IC50 in assay [1] and in assay [2] was less than 1 µM throughout.

`CC(C)C(=O)Nc1cc(C(=O)NC(C)c2ccc(OCC(F)(F)F)nc2)ccn1` (single isomer, unassigned) [Example 8, 2-isobutyramido-N-(1-(6-(2,2,2-trifluoroethoxy)pyridin-3-yl)ethyl)isonicotinamide]: the IC50 in assay [1] and in assay [2] was less than 1 µM throughout.

With `CCC(=O)Nc1cc(C(=O)NCc2ccc(OCC(F)(F)F)c(C)c2)ccn1` [Example 789, N-(3-methyl-4-(2,2,2-trifluoroethoxy)benzyl)-2-propionamidoisonicotinamide], the IC50 in assay [1] and in assay [2] was less than 1 µM in each case.

For the origin of these results see patent US9302991B2, “Arylamide derivatives as TTX-S blockers” (RaQualia Pharma Inc., priority 2010, dated 2016).
